Results taken from US20250179059A1 (The Regents of the University of California, priority 2021, published 2025).
Like-named read-outs stand apart in the source and are kept apart here.

Experiments:
[1] = target: T1, human BRD4 bromodomain II (Homo sapiens, UniProt O60885); experiment: Bromodomain binding assay (AlphaScreen), BRD4 BDII
T1 construct: human BRD4 bromodomain II [based on Genbank NM_058243, residues 349-460]; host or cells: E. coli
Procedure, shortened: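 Read-out is AlphaScreen signal (ex 680 nm, em 520-620 nm) from streptavidin donor beads on a biotinylated acetylated histone H4 (aa 1-21) peptide and nickel acceptor beads on the His6-tagged bromodomain. IC50 values come from curve fits of percentage peptide binding against compound concentration.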

[2] = tested on: human SKM-1 acute myeloid leukemia cells; experiment: SKM-1 antiproliferation cell-based assay (ATPlite)
Procedure, shortened: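 Log-phase cells in RPMI 1640/15% FBS were seeded at 34722 cells/mL and exposed for 4 days to nine-concentration DMSO serial dilutions in triplicate. Viability was read as ATP luminescence (ATPlite 1step), and IC50 values came from variable-slope non-linear regression.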

[3] = AlphaScreen assay, Table C2, read-out: BRD4 BDII IC50
[4] = Homo sapiens, SKM-1, 96 h, SKM-1 antiproliferation assay, 4 days, Table C2
[5] = BRD4 BDII AlphaScreen assay, read-out: BRD4 BD2 IC50
[6] = Homo sapiens, SKM-1, SKM-1 antiproliferation assay

IC50 [1, 3] [nM] | GI50 [2, 4] [nM] | IC50 [1, 5] [nM] | GI50 [2, 6] [nM] | GI50 ([2]; SKM-1 antiproliferation assay) [nM] | Compound
1 to 10 | 30 to 300 |  |  |  | CN[C@H]1CCCN(c2cc(-c3cc(F)cc(-c4ccc(N5CCN(C)C5=O)c(Cl)c4)c3O)ccn2)C1 [Example 450]
 |  | 1 to 10 | 0.3 to 30 |  | Cc1cc(-c2ccc(-n3ccn(C)c3=O)c(F)c2)c(O)c(-c2cccc(N3CCN(C(C)(C)C)CC3)c2)n1 [Example 1003, 1-(4-(2-(3-(4-(tert-butyl)piperazin-1-yl)phenyl)-3-hydroxy-6-methylpyridin-4-yl)-2-fluorophenyl)-3-methyl-1H-imidazol-2(3H)-one]
0.01 to 1 | 0.3 to 30 |  |  |  | COc1ncc(-c2cc(F)cc(-c3ccc(-n4ccn(C)c4=O)c(Cl)c3)c2O)cc1N1CCN(C(C)(C)C)CC1 [Example 802, 1-(3′-(5-(4-(tert-butyl)piperazin-1-yl)-6-methoxypyridin-3-yl)-3-chloro-5′-fluoro-2′-hydroxy-[1,1′-biphenyl]-4-yl)-3-methyl-1,3-dihydro-2H-imidazol-2-one]
0.01 to 1 | 0.3 to 30 |  |  |  | COCCCOc1cc(-c2cc(F)cc(-c3ccc(-n4ccn(C)c4=O)c(Cl)c3)c2O)cc(N2CCN[C@H](C)C2)n1 [Example 715, (R)-1-(3-chloro-5′-fluoro-2′-hydroxy-3′-(2-(3-methoxypropoxy)-6-(3-methylpiperazin-1-yl)pyridin-4-yl)-[1,1′-biphenyl]-4-yl)-3-methyl-1H-imidazol-2(3H)-one]
 |  | 1 to 10 |  | 0.3 to 30 | Cn1ccn(-c2ccc(-c3cc(F)cc(-c4ccnc(N5CC(F)(F)[C@@](C)(O)C5)c4)c3O)cc2Cl)c1=O [Example 882]
1 to 10 | 30 to 300 |  |  |  | CC(=O)Nc1ccc(-c2cc(C)cc(-c3ccnc(N4CCNCC4)c3)c2O)cc1F [Example 275, N-(3-fluoro-2′-hydroxy-5′-methyl-3′-(2-(piperazin-1-yl)pyridin-4-yl)-[1,1′-biphenyl]-4-yl)acetamide]
 |  | 10 to 100 | 300 to 3000 |  | Cn1cc(-c2cccc(N3CCN(C(C)(C)C)CC3)c2)c(O)c(-c2ccc(-n3ccn(C)c3=O)c(Cl)c2)c1=O [Example 1030, 5-(3-(4-(tert-Butyl)piperazin-1-yl)phenyl)-3-(3-chloro-4-(3-methyl-2-oxo-2,3-dihydro-1H-imidazol-1-yl)phenyl)-4-hydroxy-1-methylpyridin-2(1H)-one]
0.01 to 1 | 0.3 to 30 |  |  |  | Cn1ccn(-c2ccc(-c3cc(F)cc(-c4cc(N5CCC[C@H](N)C5)c5cn[nH]c5c4)c3O)cc2Cl)c1=O [Example 578]
0.01 to 1 | 0.3 to 30 |  |  |  | [2H]C([2H])([2H])n1ccn(-c2ccc(-c3cc(F)cc(-c4ccnc(N5CCNC[C@@H]5C)c4)c3O)cc2Cl)c1=O [Example 482, (S)-1-(3-chloro-5′-fluoro-2′-hydroxy-3′-(2-(2-methylpiperazin-1-yl)pyridin-4-yl)-[1,1′-biphenyl]-4-yl)-3-deuteromethyl-1H-imidazol-2(3H)-one]
1 to 10 | 30 to 300 |  |  |  | Cn1ccn(-c2ccc(-c3cc(F)cc(-c4ccnc(N5CCC(O)(C(F)(F)F)C5)c4)c3O)cc2Cl)c1=O (stereo not drawn) [Example 784, 1-(3-chloro-5′-fluoro-2′-hydroxy-3′-(2-(3-hydroxy-3-(trifluoromethyl)pyrrolidin-1-yl)pyridin-4-yl)-[1,1′-biphenyl]-4-yl)-3-methyl-1H-imidazol-2(3H)-one]
1 to 10 | 30 to 300 |  |  |  | CC(=O)Nc1ccc(-c2cccc(-c3cncc(N4CCN[C@H](C)C4)c3)c2O)cc1Cl [Example 259, (R)-N-(3-chloro-2′-hydroxy-3′-(5-(3-methylpiperazin-1-yl)pyridin-3-yl)-[1,1′-biphenyl]-4-yl)acetamide]
1 to 10 | 300 to 3000 |  |  |  | Cn1ccn(-c2ccc(-c3cc(F)cc(-c4ccnc(N5CCC[C@H](CN)C5)c4)c3O)cc2Cl)c1=O [Example 497, (R)-1-(3′-(2-(3-(aminomethyl)piperidin-1-yl)pyridin-4-yl)-3-chloro-5′-fluoro-2′-hydroxy-[1,1′-biphenyl]-4-yl)-3-methyl-1H-imidazol-2(3H)-one]
